Reference: patent US20250326753A1, “DUAL CXCR4-BTK INHIBITORS” (X4 Pharmaceuticals, Inc., priority 2022, published 2025)
Like-named read-outs stand apart in the source and are kept apart here.

How the values were obtained:
FRK = target: T1, FRK (Homo sapiens, UniProt P42685); assay: PanQinase kinase panel: FRK; assay type: biochemical; conditions: read-out: INHIBITORY EFFECT @ 1 uM: FRK
T1 construct: purchased Reaction Biology Europe GmbH
Method: (§1) Screening procedures were performed in accordance with the company's on-line protocol [accessed on-line Mar.
(§2) For each kinase, the median value of the cpm of three wells was defined as “low control” (n=3). This value reflects unspecific binding of radioactivity to the plate in the absence of a protein kinase but in the presence of the substrate. Additionally, for each kinase the median value of the cpm of three other wells was taken as the “high control,” i.e. full activity in the absence of any inhibitor (n=3). The difference between high and low control of each enzyme was taken as 100% activity.
(§3) As part of the data evaluation the low control of each kinase was subtracted from the high control value as well as from their corresponding “compound values”. The residual activity (in %) for each compound well was calculated by using the following formula: Res. Activity (%)=100×[(signal of compound−low control)/(high control−low control)].

PAK3 = target: T2, PAK3 (Homo sapiens, UniProt O75914); assay: PanQinase kinase panel: PAK3; assay type: biochemical; conditions: read-out: INHIBITORY EFFECT @ 1 uM: PAK3
T2 construct: purchased Reaction Biology Europe GmbH
Method: as §1, §2, §3

FGFR2 = target: T3, FGFR2 (Homo sapiens, UniProt P21802); assay: PanQinase kinase panel: FGFR2; assay type: biochemical; conditions: read-out: INHIBITORY EFFECT @ 1 uM: FGFR2
T3 construct: purchased Reaction Biology Europe GmbH
Method: Screening procedures were performed in accordance with the company's on-line protocol [accessed on-line Mar. 25, 2022 at reaction biology.com/assay-protocol-panqinase]. Inhibitory activity of 50% or greater at concentrations of 1 μM are highlighted for all five compounds tested.
as §2, §3

MEK1 = target: T4, MEK1 (Homo sapiens, UniProt Q02750); assay: PanQinase kinase panel: MEK1; assay type: biochemical; conditions: read-out: INHIBITORY EFFECT @ 1 uM: MEK1
T4 construct: purchased Reaction Biology Europe GmbH
Method: as §1, §2, §3

FGFR3 = target: T5, FGFR3 (Homo sapiens, UniProt P22607); assay: PanQinase kinase panel: FGFR3; assay type: biochemical; conditions: read-out: INHIBITORY EFFECT @ 1 uM: FGFR3
T5 construct: purchased Reaction Biology Europe GmbH
Method: as §1, §2, §3

INSRR = target: T6, INSRR (Homo sapiens, UniProt P14616); assay: PanQinase kinase panel: INSRR; assay type: biochemical; conditions: read-out: INHIBITORY EFFECT @ 1 uM: INSRR
T6 construct: purchased Reaction Biology Europe GmbH
Method: as §1, §2, §3

CLK2 = target: T7, CLK2 (Homo sapiens, UniProt P49760); assay: PanQinase kinase panel: CLK2; assay type: biochemical
T7 construct: purchased Reaction Biology Europe GmbH
Method: as §1, §2, §3

MAP3K11 = target: T8, MAP3K11 (Homo sapiens, UniProt Q16584); assay: PanQinase kinase panel: MAP3K11; assay type: biochemical
T8 construct: purchased Reaction Biology Europe GmbH
Method: as §1, §2
(§4) As part of the data evaluation the low control of each kinase was subtracted from the high control value as well as from their corresponding “compound values”.

BRK = target: T9, BRK (Homo sapiens, UniProt Q13882); assay: PanQinase kinase panel: BRK; assay type: biochemical; conditions: read-out: INHIBITORY EFFECT @ 1 uM: BRK
T9 construct: purchased Reaction Biology Europe GmbH
Method: as §1, §2, §4

CXCR4 = CXCR4 (Homo sapiens, UniProt P61073); assay: Intracellular CXCL-12-induced calcium mobilization assay (FLIPR), U87.CXCR4 cells; assay type: cell-based; set-up: expressed in transfected cells; host or cells: U87 (U87.CXCR4); conditions: CXCL-12 25-50 ng/ml, read-out: IC50 CXCL-12 Ca2+ flux U87.CXCR4+
In short: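 U87 cells transfected with CXCR4 were loaded with 4 μM Fluo-2 AM for 45 min at 37° C in HBSS with 20 mM HEPES and 0.2% BSA, pH 7.4. Calcium mobilization induced by CXCL-12 (25-50 ng/ml) was followed over time by FLIPR fluorescence at 37° C.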

T98G = assay: Glioblastoma multiforme cell proliferation assay (CellTiter Glo), T98G; assay type: cell-based; conditions: Homo sapiens; for Emax: read-out: GBM-T-98G Cell Proliferation Emax %
Method: Inhibition of glioblastoma multiforme cell proliferation by compounds of the present invention was evaluated in U-87 MG (ATCC; Cat. No. HTB-14; Lot. No. 5018014) and T98G (ATCC; Cat. No. CRL-1690; Lot. No. 58267513) cell lines. These are adherent cell lines isolated from glioblastoma multiforme/malignant glioma, which express both CXCR4 and BTK (see Zhou et al. 2002 and Yue et al. 2017).
Cell viability was analyzed with the CellTiter Glo Cell assay kit ([…], Cat. No. G7573, Lot. No. 0000474103), according to the manufacturer's instruction.
U-87 MG and T98G cells were seeded onto 384-well opaque-walled clear bottom plates (Corning, Cat. No. 3765, Lot. No. 34319047) in EMEM (Invitrogen, Cat. No. 11095-080; Lot. No. 2276656) supplemented with 10% FBS (Invitrogen, Cat. No. 10099-141C, Lot. No. 2145169CP), at a seeding density of 1000 or 1200 cells per well, respectively, and then incubated in 5% CO2 at 37° C. overnight.
Compounds were prepared as stock solutions of 30 mM in DMSO (Sigma, Cat. No. 276855-1L. Lot. No. SHBL5610). Compounds were added to the cells, with 10 dose points in duplicates, in 3-fold dilution from a top concentration of 30 μM (final DMSO concentration […]), and incubated in 5% CO2 at 37° C. for 96 hr.
The 384-well plates were equilibrated at room temperature for approximately 30 min. 25 μl of CellTiter-Glo® Reagent was added to each well and mixed for 10 min on an orbital shaker to induce cell lysis. The 384-well plates were incubated at room temperature for 10 min to stabilize luminescent signal. Luminescence was detected on a PerkinElmer EnVision Multimode Plate Reader (measurement time 0.1s) as relative luminescence units (RLU).

[1] = read-out: INHIBITORY EFFECT @ 1 uM: CLK2
[2] = read-out: INHIBITORY EFFECT @ 1 uM: MAP3K11
[3] = Table 6A, cell viability, 96 hr, read-out: T98G IC50

T5 sequence (P22607 23-806): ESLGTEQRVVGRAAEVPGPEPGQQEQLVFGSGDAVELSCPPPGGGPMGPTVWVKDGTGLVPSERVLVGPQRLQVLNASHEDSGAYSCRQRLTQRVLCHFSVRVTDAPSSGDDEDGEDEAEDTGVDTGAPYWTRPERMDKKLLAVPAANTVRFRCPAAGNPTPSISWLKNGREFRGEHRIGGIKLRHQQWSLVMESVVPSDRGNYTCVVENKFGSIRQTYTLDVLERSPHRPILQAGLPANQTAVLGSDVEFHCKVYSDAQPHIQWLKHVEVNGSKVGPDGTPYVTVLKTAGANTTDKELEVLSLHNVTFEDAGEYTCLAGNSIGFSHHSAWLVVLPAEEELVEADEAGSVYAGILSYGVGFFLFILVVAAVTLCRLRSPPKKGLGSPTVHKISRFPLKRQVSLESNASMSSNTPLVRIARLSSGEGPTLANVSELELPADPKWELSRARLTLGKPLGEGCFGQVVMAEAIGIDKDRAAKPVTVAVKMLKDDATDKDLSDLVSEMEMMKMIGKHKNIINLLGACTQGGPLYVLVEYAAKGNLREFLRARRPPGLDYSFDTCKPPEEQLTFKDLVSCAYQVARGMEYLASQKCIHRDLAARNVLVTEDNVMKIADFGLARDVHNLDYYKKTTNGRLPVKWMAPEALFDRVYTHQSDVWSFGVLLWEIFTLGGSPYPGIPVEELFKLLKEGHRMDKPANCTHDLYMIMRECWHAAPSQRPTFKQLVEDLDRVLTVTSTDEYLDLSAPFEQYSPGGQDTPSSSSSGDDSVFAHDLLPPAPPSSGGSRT
T1 sequence (P42685 whole entry): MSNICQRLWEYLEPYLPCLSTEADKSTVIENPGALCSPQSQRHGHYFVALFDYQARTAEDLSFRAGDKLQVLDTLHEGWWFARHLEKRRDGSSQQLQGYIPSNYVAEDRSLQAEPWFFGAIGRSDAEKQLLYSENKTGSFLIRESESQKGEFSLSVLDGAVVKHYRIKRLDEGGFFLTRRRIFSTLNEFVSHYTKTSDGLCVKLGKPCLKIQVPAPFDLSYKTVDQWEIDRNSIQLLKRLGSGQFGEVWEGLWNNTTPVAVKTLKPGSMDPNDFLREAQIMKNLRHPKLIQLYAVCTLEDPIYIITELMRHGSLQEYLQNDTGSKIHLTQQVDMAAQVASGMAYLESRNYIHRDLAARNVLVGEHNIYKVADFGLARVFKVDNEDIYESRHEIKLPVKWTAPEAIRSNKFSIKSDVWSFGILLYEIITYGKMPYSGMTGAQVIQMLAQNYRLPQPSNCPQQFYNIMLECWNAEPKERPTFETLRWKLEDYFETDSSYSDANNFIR
T2 sequence (O75914 whole entry): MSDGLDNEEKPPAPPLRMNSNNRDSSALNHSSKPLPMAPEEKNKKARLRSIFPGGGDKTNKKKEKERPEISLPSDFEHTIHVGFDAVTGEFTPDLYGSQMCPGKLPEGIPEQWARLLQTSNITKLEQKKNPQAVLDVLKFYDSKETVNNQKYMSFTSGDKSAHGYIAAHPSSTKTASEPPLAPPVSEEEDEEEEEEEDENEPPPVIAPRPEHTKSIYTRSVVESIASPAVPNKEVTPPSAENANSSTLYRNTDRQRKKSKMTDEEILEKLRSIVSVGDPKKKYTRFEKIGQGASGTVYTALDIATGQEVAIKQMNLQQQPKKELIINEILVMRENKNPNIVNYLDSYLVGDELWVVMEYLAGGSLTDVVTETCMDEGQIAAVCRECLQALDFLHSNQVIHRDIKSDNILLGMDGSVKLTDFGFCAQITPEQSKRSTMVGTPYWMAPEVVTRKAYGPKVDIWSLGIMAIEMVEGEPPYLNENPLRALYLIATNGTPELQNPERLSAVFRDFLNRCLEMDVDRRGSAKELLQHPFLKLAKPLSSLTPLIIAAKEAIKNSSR
T8 sequence (Q16584 whole entry): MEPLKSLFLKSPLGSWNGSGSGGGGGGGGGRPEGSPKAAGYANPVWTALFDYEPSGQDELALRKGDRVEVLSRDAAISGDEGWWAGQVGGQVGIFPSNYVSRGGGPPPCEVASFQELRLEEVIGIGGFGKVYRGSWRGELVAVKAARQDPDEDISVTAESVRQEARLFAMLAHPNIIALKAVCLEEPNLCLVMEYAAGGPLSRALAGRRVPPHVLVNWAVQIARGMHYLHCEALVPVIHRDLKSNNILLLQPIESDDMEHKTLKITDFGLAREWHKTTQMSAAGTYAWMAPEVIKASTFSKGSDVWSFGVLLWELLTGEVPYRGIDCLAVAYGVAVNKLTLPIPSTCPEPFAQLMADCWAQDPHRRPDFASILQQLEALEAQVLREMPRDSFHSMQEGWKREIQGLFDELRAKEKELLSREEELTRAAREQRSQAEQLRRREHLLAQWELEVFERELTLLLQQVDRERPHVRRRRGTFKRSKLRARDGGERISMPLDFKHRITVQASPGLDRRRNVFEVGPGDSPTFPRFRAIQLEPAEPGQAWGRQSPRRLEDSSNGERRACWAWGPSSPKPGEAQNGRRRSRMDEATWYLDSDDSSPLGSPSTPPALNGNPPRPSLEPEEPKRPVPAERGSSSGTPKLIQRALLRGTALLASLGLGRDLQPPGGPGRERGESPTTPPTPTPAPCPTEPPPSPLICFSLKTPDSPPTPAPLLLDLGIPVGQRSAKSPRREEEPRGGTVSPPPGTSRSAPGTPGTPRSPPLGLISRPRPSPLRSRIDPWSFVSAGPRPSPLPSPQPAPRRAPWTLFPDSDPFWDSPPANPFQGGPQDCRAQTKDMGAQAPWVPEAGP
Sequence of CXCR4 (P61073 whole entry): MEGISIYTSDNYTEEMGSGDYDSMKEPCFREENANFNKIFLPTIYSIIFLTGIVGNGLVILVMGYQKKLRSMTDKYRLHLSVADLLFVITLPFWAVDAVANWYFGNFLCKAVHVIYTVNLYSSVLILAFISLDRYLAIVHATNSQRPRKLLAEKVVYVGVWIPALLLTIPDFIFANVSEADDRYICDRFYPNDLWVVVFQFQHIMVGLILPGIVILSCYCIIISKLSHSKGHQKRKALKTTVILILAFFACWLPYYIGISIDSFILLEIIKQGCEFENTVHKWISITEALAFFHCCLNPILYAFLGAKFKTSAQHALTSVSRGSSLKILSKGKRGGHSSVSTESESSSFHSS
T4 sequence (Q02750 whole entry): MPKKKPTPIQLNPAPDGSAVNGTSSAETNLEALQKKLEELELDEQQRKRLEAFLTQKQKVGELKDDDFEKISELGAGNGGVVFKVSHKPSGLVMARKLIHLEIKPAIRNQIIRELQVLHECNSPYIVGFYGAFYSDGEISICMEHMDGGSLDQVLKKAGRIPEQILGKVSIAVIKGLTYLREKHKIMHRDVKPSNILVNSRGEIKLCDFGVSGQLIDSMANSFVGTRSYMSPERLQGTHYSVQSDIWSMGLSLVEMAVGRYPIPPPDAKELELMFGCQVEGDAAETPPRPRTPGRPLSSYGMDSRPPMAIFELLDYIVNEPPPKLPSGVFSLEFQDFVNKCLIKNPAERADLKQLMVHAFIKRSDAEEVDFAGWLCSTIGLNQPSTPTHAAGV
T9 sequence (Q13882 whole entry): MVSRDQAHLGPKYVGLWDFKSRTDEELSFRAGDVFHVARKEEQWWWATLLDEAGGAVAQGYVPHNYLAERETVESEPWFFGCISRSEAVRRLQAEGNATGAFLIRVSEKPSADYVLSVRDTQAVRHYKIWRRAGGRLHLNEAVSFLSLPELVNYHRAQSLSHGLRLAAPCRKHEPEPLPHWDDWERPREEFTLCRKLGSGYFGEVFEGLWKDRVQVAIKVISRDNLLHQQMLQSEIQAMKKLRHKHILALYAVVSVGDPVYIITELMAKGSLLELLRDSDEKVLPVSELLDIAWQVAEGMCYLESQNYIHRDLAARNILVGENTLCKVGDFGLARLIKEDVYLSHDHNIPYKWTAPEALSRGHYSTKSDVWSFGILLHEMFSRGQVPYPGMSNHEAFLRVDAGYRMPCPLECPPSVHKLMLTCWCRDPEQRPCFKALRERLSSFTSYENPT
T3 sequence (P21802 22-821): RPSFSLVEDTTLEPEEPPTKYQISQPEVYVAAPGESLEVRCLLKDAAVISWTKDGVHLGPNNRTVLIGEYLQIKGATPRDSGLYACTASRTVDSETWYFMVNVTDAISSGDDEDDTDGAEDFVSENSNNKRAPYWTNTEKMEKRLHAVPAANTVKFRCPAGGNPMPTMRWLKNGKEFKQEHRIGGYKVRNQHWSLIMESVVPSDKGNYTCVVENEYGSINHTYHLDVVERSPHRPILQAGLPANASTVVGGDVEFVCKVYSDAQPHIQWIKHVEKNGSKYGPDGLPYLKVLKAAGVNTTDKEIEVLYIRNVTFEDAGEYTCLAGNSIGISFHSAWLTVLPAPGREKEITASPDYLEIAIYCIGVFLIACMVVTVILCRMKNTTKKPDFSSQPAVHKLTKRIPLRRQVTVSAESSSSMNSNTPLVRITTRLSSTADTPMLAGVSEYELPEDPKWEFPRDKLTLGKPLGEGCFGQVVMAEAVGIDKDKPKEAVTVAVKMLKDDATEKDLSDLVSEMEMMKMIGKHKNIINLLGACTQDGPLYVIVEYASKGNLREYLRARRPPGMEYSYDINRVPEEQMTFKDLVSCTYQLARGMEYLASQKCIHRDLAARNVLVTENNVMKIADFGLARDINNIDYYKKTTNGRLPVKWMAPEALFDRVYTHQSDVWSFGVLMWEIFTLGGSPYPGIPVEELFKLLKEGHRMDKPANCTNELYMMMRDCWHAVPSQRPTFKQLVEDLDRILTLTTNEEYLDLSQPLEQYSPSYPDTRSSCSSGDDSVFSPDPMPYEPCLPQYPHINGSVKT

Row | Structure (SMILES) | inhibition at 1 µM (FRK) [%] | inhibition at 1 µM (PAK3) [%] | inhibition at 1 µM (FGFR2) [%] | inhibition at 1 µM (MEK1) [%] | inhibition at 1 µM (FGFR3) [%] | inhibition at 1 µM (INSRR) [%] | inhibition at 1 µM (CLK2; at 1 μM, read-out: inhibition of CLK2) [%] | inhibition at 1 µM (CLK2; [1]) [%] | inhibition at 1 µM (MAP3K11; at 1 μM, read-out: inhibition of MAP3K11) [%] | inhibition at 1 µM (MAP3K11; [2]) [%] | inhibition at 1 µM (BRK) [%] | IC50 (CXCR4) [nM] | Emax (T98G; Table 6B) [%] | IC50 (T98G; read-out: GBM-T-98G Cell Proliferation IC50 uM) [µM] | IC50 (T98G; Table 6B, read-out: GBM-T-98G Cell Proliferation IC50) [µM] | IC50 (T98G; [3]) [µM]
1 | O=C(c1ccc(Oc2ccccc2)cc1Cl)c1c[nH]c2ncnc(N[C@@H]3CC[C@@H](CO)OC3)c12 [ARQ-531, (2-chloro-4-phenoxyphenyl) (4-(((3R,6S)-6-(hydroxymethyl)tetrahydro-2H-pyran-3-yl)amino)-7H-pyrrolo[2,3-d]pyrimidin-5-yl) methanone] | 70 to 89 | 90 to 100 | 90 to 100 | 50 to 69 | 50 to 69 | 90 to 100 | – | – | – | – | – | – | – | – | – | –
2 | Cc1cccnc1[C@H]1CCC[C@@H](c2ncccc2C)N1CCN1CCN(C(=O)c2ccc(-c3cc4c(-c5cccc(NC(=O)c6ccccc6)c5C)ncnc4[nH]3)cc2)CC1 [Compound I-10, N-(3-(6-(4-(4-(2-((2R,6S)-2,6-bis(3-methylpyridin-2-yl)piperidin-1-yl)ethyl)piperazine-1-carbonyl)phenyl)-7H-pyrrolo[2,3-d]pyrimidin-4-yl)-2-methylphenyl)benzamide] | < 50 | < 50 | < 50 | < 50 | < 50 | < 50 | 50 to 89 | 50 to 69 | 50 to 89 | 50 to 69 | < 50 | 1 to 100 | 93 | 2.66 | – | –
3 | Cc1cc(-c2ccnc(Nc3cnn(CCN4[C@@H](c5ncccc5C)CCC[C@H]4c4ncccc4C)c3)n2)ccc1CNC(=O)N1CC(OC(C)C)C1 [Compound I-11] | – | – | – | – | – | – | – | – | – | – | – | 100 to 1000 | 98 | – | 3.28 | –
4 | Cc1cccnc1[C@H]1CCC[C@@H](c2ncccc2C)N1CCCCNC(=O)[C@@H]1CC[C@@H](Nc2ncnc3[nH]cc(C(=O)c4ccc(Oc5ccccc5)cc4Cl)c23)CO1 [Compound I-16] | – | – | – | – | – | – | – | – | – | – | – | 100 to 1000 | – | – | – | 2.2
5 | Cc1cccnc1[C@H]1CCC[C@@H](c2ncccc2C)N1CCCCNC(=O)OC[C@@H]1CC[C@@H](Nc2ncnc3[nH]cc(C(=O)c4ccc(Oc5ccccc5)cc4Cl)c23)CO1 [Compound I-18] | – | – | – | – | – | – | – | – | – | – | – | > 2500 | – | – | – | 2.4
6 | COc1ccc(F)cc1C(=O)NCc1ccc(-c2nn([C@@H](C)C(F)(F)F)c(N)c2C(N)=O)cc1 [LOXO-305, pirtobrutinib] | < 50 | < 50 | < 50 | < 50 | < 50 | < 50 | – | < 50 | – | < 50 | 70 to 89 | – | – | – | – | –
7 | C=CC(=O)N1CCC([C@@H]2CCNc3c(C(N)=O)c(-c4ccc(Oc5ccccc5)cc4)nn32)CC1 [Zanubrutinib, (7S)-2-(4-phenoxyphenyl)-7-(1-prop-2-enoylpiperidin-4-yl)-4,5,6,7-tetrahydropyrazolo[1,5-a]pyrimidine-3-carboxamide] | 50 to 69 | < 50 | < 50 | < 50 | < 50 | < 50 | – | < 50 | – | < 50 | 90 to 100 | – | – | – | – | –
